Measured values taken from ChEMBL document CHEMBL3751767, “Synthesis, in vitro and in vivo anticancer activities of novel 4-substituted 1,2-bis(4-chlorophenyl)-pyrazolidine-3,5-dione derivatives” (Medchemcomm, 2015).
Activity calls are given as the source filed them. The rule behind the calls is not given here.

Legend:
MGC-803 [1] = assay: Induction of apoptosis in human MGC803 cells assessed as early apoptotic cells at 12 uM after 24 hrs by Annexin V-FITC/propidium iodide staining based flow cytometry (reference value: 6%); assay type: functional
MGC-803 [2] = assay: Induction of apoptosis in human MGC803 cells assessed as early apoptotic cells at 12 uM after 12 hrs by Annexin V-FITC/propidium iodide staining based flow cytometry (reference value: 6.3%); assay type: functional
MGC-803 [3] = assay: Induction of apoptosis in human MGC803 cells assessed as nuclear morphological changes at 4 to 12 uM after 12 hrs by Hoechst 33258 staining based fluorescence assay; assay type: functional, cell-based
MGC-803 [4] = assay: Induction of apoptosis in human MGC803 cells assessed as increase in Bax protein expression after 24 hrs by Western blot analysis; assay type: functional, cell-based
MGC-803 [5] = assay: Induction of apoptosis in human MGC803 cells assessed as decrease in expression of procaspase-9 at 4 to 12 uM after 24 hrs by Western blot analysis; assay type: functional, cell-based
MGC-803 [6] = assay: Induction of apoptosis in human MGC803 cells assessed as necrotic cells at 12 uM after 24 hrs by Annexin V-FITC/propidium iodide staining based flow cytometry (reference value: 6.1%); assay type: functional
[7] = Cytotoxicity against human SMMC7721 cells assessed as reduction in cell viability after 72 hrs by MTT assay; assay type: functional, cell-based; settings: SMMC-7721, 72 h
MGC-803 [8] = assay: Induction of apoptosis in human MGC803 cells assessed as early apoptotic cells at 4 uM after 12 hrs by Annexin V-FITC/propidium iodide staining based flow cytometry (reference value: 6.3%); assay type: functional
MGC-803 [9] = assay: Induction of apoptosis in human MGC803 cells assessed as increase in expression of cleaved caspase-3 at 4 to 12 uM after 24 hrs by Western blot analysis; assay type: functional, cell-based
MGC-803 [10] = assay: Induction of apoptosis in human MGC803 cells assessed as early apoptotic cells at 8 uM after 12 hrs by Annexin V-FITC/propidium iodide staining based flow cytometry (reference value: 6.3%); assay type: functional
MCF7 = assay: Cytotoxicity against human MCF7 cells assessed as reduction in cell viability after 72 hrs by MTT assay; assay type: functional, cell-based; settings: MCF7, 72 h
MGC-803 [11] = assay: Induction of apoptosis in human MGC803 cells assessed as viable cells at 8 uM after 24 hrs by Annexin V-FITC/propidium iodide staining based flow cytometry (reference value: 86.6%); assay type: functional; settings: MGC-803, 24 h, read-out: Activity
MGC-803 [12] = assay: Induction of apoptosis in human MGC803 cells assessed as increase in expression of cleaved caspase-3 at 4 to 12 uM by Western blot analysis; assay type: functional, cell-based; settings: TDE = time-dependent effect
[13] = Cytotoxicity against human EC109 cells assessed as reduction in cell viability after 72 hrs by MTT assay; assay type: functional, cell-based; settings: ECa-109, 72 h
[14] = Cytotoxicity against human MGC803 cells assessed as reduction in cell viability after 72 hrs by MTT assay; assay type: functional, cell-based; settings: MGC-803, 72 h
Mus musculus = assay: Toxicity in nude mouse xenografted with human MGC803 cells assessed as body weight loss at 7.5 to 30 mg/kg, po qd for 28 days; assay type: organism-based, MGC-803; settings: in vivo, 672 h
MGC-803 [15] = assay: Induction of apoptosis in human MGC803 cells assessed as morphological changes at 4 to 12 uM after 12 hrs by inverted microscopy; assay type: functional, cell-based
MGC-803 [16] = assay: Induction of apoptosis in human MGC803 cells assessed as necrotic cells at 4 uM after 12 hrs by Annexin V-FITC/propidium iodide staining based flow cytometry (reference value: 9.2%); assay type: functional
MGC-803 [17] = assay: Induction of apoptosis in human MGC803 cells assessed as viable cells at 12 uM after 12 hrs by Annexin V-FITC/propidium iodide staining based flow cytometry (reference value: 83.4%); assay type: functional; settings: MGC-803, 12 h, read-out: Activity
MGC-803 [18] = assay: Induction of apoptosis in human MGC803 cells assessed as necrotic cells at 12 uM after 12 hrs by Annexin V-FITC/propidium iodide staining based flow cytometry (reference value: 9.2%); assay type: functional
MGC-803 [19] = assay: Induction of apoptosis in human MGC803 cells assessed as late apoptotic cells at 4 uM after 12 hrs by Annexin V-FITC/propidium iodide staining based flow cytometry (reference value: 1.2%); assay type: functional
MGC-803 [20] = assay: Induction of apoptosis in human MGC803 cells assessed as late apoptotic cells at 8 uM after 12 hrs by Annexin V-FITC/propidium iodide staining based flow cytometry (reference value: 1.2%); assay type: functional
MGC-803 [21] = assay: Induction of apoptosis in human MGC803 cells assessed as early apoptotic cells at 8 uM after 24 hrs by Annexin V-FITC/propidium iodide staining based flow cytometry (reference value: 6%); assay type: functional
MGC-803 [22] = assay: Induction of apoptosis in human MGC803 cells assessed as increase in expression of cleaved caspase-3 after 24 hrs by Western blot analysis; assay type: functional, cell-based
MGC-803 [23] = assay: Induction of apoptosis in human MGC803 cells assessed as viable cells at 4 uM after 12 hrs by Annexin V-FITC/propidium iodide staining based flow cytometry (reference value: 83.4%); assay type: functional; settings: MGC-803, 12 h, read-out: Activity
MGC-803 [24] = assay: Induction of apoptosis in human MGC803 cells assessed as necrotic cells at 8 uM after 12 hrs by Annexin V-FITC/propidium iodide staining based flow cytometry (reference value: 9.2%); assay type: functional
MGC-803 [25] = assay: Induction of apoptosis in human MGC803 cells by Annexin V-FITC/propidium iodide staining based flow cytometry; assay type: functional, cell-based
MGC-803 [26] = assay: Induction of apoptosis in human MGC803 cells assessed as early apoptotic cells at 4 uM after 24 hrs by Annexin V-FITC/propidium iodide staining based flow cytometry (reference value: 6%); assay type: functional
MGC-803 [27] = assay: Induction of apoptosis in human MGC803 cells assessed as reduction in Bcl-2 protein expression after 24 hrs by Western blot analysis; assay type: functional, cell-based
MGC-803 [28] = assay: Induction of apoptosis in human MGC803 cells assessed as late apoptotic cells at 12 uM after 24 hrs by Annexin V-FITC/propidium iodide staining based flow cytometry (reference value: 1.2%); assay type: functional
MGC-803 [29] = assay: Induction of apoptosis in human MGC803 cells assessed as viable cells at 12 uM after 24 hrs by Annexin V-FITC/propidium iodide staining based flow cytometry (reference value: 86.6%); assay type: functional; settings: MGC-803, 24 h, read-out: Activity
MGC-803 [30] = assay: Induction of apoptosis in human MGC803 cells assessed as increase in expression of cleaved caspase-9 at 4 to 12 uM after 24 hrs by Western blot analysis; assay type: functional, cell-based
[31] = Cytotoxicity against human GES-1 cells assessed as cell viability at 20 uM after 72 hrs by MTT assay relative to control; assay type: cell-based, GES1; settings: read-out: Activity
MGC-803 [32] = assay: Induction of apoptosis in human MGC803 cells assessed as increase in expression of cleaved caspase-9 after 24 hrs by Western blot analysis; assay type: functional, cell-based
MGC-803 [33] = assay: Induction of apoptosis in human MGC803 cells assessed as late apoptotic cells at 8 uM after 24 hrs by Annexin V-FITC/propidium iodide staining based flow cytometry (reference value: 1.2%); assay type: functional
MGC-803 [34] = assay: Induction of apoptosis in human MGC803 cells assessed as necrotic cells at 4 uM after 24 hrs by Annexin V-FITC/propidium iodide staining based flow cytometry (reference value: 6.1%); assay type: functional
[35] = Antitumor activity against human MGC803 cells xenografted in nude mouse assessed as reduction in tumor weight 7.5 to 30 mg/kg, po qd for 28 days relative to control; assay type: functional, MGC-803; parameters: scale not given: the % may be the effect or the level left
MGC-803 [36] = assay: Induction of apoptosis in human MGC803 cells assessed as increase in expression of cleaved caspase-9 at 4 to 12 uM by Western blot analysis; assay type: functional, cell-based; settings: TDE = time-dependent effect
MGC-803 [37] = assay: Induction of apoptosis in human MGC803 cells assessed as late apoptotic cells at 12 uM after 12 hrs by Annexin V-FITC/propidium iodide staining based flow cytometry (reference value: 1.2%); assay type: functional
MGC-803 [38] = assay: Induction of apoptosis in human MGC803 cells assessed as necrotic cells at 8 uM after 24 hrs by Annexin V-FITC/propidium iodide staining based flow cytometry (reference value: 6.1%); assay type: functional
MGC-803 [39] = assay: Induction of apoptosis in human MGC803 cells assessed as decrease in expression of procaspase-3 at 4 to 12 uM after 24 hrs by Western blot analysis; assay type: functional, cell-based
MGC-803 [40] = assay: Induction of apoptosis in human MGC803 cells assessed as viable cells at 8 uM after 12 hrs by Annexin V-FITC/propidium iodide staining based flow cytometry (reference value: 83.4%); assay type: functional; settings: MGC-803, 12 h, read-out: Activity
MGC-803 [41] = assay: Induction of apoptosis in human MGC803 cells assessed as late apoptotic cells at 4 uM after 24 hrs by Annexin V-FITC/propidium iodide staining based flow cytometry (reference value: 1.2%); assay type: functional
MGC-803 [42] = assay: Induction of apoptosis in human MGC803 cells assessed as viable cells at 4 uM after 24 hrs by Annexin V-FITC/propidium iodide staining based flow cytometry (reference value: 86.6%); assay type: functional; settings: MGC-803, 24 h, read-out: Activity

Q: For `O=C1C(=C/C=C/c2ccccc2)C(=O)N(c2ccc(Cl)cc2)N1c1ccc(Cl)cc1`, which Activity (MGC-803 [1]) is on record?
A: 52.7%

Q: What about the Activity (MGC-803 [2]) of the same compound?
A: 30.1%

Q: What about the Activity (MGC-803 [3]) of the same compound?
A: Active

Q: What about the Activity (MGC-803 [4]) of the same compound?
A: Dose-dependent effect

Q: And the Activity (MGC-803 [5])?
A: Active

Q: What about the Activity (MGC-803 [6]) of the same compound?
A: 4.4%

Q: And the IC50 [7]?
A: 10.1 µM

Q: And the Activity (MGC-803 [8])?
A: 12.8%

Q: And the Activity (MGC-803 [9])?
A: Active

Q: And the Activity (MGC-803 [10])?
A: 21.5%

Q: And the IC50 (MCF7)?
A: 9.4 µM

Q: What about the viability at 8 µM (MGC-803 [11]) of the same compound?
A: 65%

Q: What about the Activity (MGC-803 [12]) of the same compound?
A: tde

Q: What about the IC50 [13] of the same compound?
A: 9.9 µM

Q: And the IC50 [14]?
A: 5.1 µM

Q: What about the Activity (Mus musculus) of the same compound?
A: Non-toxic

Q: And the Activity (MGC-803 [15])?
A: Active

Q: What about the Activity (MGC-803 [16]) of the same compound?
A: 7.8%

Q: What about the viability at 12 µM (MGC-803 [17]) of the same compound?
A: 64.1%

Q: And the Activity (MGC-803 [18])?
A: 3.9%

Q: What about the Activity (MGC-803 [19]) of the same compound?
A: 1.8%

Q: And the Activity (MGC-803 [20])?
A: 1.7%

Q: And the Activity (MGC-803 [21])?
A: 28.8%

Q: And the Activity (MGC-803 [22])?
A: Dose-dependent effect

Q: What about the viability at 4 µM (MGC-803 [23]) of the same compound?
A: 77.7%

Q: And the Activity (MGC-803 [24])?
A: 5.7%

Q: What about the Activity (MGC-803 [25]) of the same compound?
A: Dose-dependent effect

Q: What about the Activity (MGC-803 [26]) of the same compound?
A: 20.4%

Q: And the Activity (MGC-803 [27])?
A: Dose-dependent effect

Q: What about the Activity (MGC-803 [28]) of the same compound?
A: 3.7%

Q: What about the viability at 12 µM (MGC-803 [29]) of the same compound?
A: 39.2%

Q: What about the Activity (MGC-803 [30]) of the same compound?
A: Active

Q: What about the viability at 72 h, 20 µM [31] of the same compound?
A: 75%

Q: And the Activity (MGC-803 [32])?
A: Dose-dependent effect

Q: And the Activity (MGC-803 [33])?
A: 2%

Q: What about the Activity (MGC-803 [34]) of the same compound?
A: 5.8%

Q: And the Activity [35]?
A: 60.4%

Q: And the Activity (MGC-803 [36])?
A: tde

Q: And the Activity (MGC-803 [37])?
A: 1.9%

Q: And the Activity (MGC-803 [38])?
A: 4.2%

Q: And the Activity (MGC-803 [39])?
A: Active

Q: What about the viability at 8 µM (MGC-803 [40]) of the same compound?
A: 71.1%

Q: What about the Activity (MGC-803 [41]) of the same compound?
A: 1.8%

Q: What about the viability at 4 µM (MGC-803 [42]) of the same compound?
A: 72.1%
